According to patent US20230135894A1, “MK2 DEGRADERS AND USES THEREOF” (Kymera Therapeutics, Inc., priority 2021, published 2023):

Key:
MK2 [1] = biological target: T1, MK2 (Homo sapiens, UniProt P49137); experiment: MK2 degradation in human THP-1 monocytic cells (MSD, 24 h); assay type: cell-based; set-up: endogenous in cells; conditions: for Dmax: THP-1, THP-1 cells; for DC50: THP-1 cells, read-out: MK2 MSD THP-1 degradation 24 h GMean External Abs DC50
How it was run: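 Readout: residual MK2 protein in THP-1 lysates, measured by MSD electrochemiluminescence sandwich assay after 24 h compound exposure (≤10-point serial dilutions, 0.1% DMSO, 37 °C). Curves normalised between lysis-buffer and DMSO-cell signals; DC50 by 4-parameter logistic fit.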

MK2 [2] = biological target: T1, MK2; experiment: MK2 degradation in human SW1353 cells (MSD, 24 h); assay type: cell-based; set-up: endogenous in cells; host or cells: SW-1353 (ATCC HTB-94); key to MK2 MSD SW1353 degradation 24 h GMean External Abs DC50: A (<0.001 μM); B (0.001-0.01 μM); C (0.01-0.1 μM); D (>0.1 μM); —: “-”=not tested or inactive; key to MK2 MSD SW 1353 24 h Dmax %: —: “-”=not tested or inactive; conditions: for Dmax: read-out: MK2 MSD SW 1353 24 h Dmax %; for DC50: read-out: MK2 MSD SW1353 degradation 24 h GMean External Abs DC50
How it was run: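 DC50 derived by 4-parameter logistic fit, with DMSO-treated signal as top and lysis-buffer signal as bottom. Remaining MK2 was measured by MSD electrochemiluminescent sandwich assay in RIPA lysates of human SW1353 cells exposed for 24 h at 37 °C to serially diluted compound in 0.1% DMSO.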

T1 sequence (P49137 whole entry): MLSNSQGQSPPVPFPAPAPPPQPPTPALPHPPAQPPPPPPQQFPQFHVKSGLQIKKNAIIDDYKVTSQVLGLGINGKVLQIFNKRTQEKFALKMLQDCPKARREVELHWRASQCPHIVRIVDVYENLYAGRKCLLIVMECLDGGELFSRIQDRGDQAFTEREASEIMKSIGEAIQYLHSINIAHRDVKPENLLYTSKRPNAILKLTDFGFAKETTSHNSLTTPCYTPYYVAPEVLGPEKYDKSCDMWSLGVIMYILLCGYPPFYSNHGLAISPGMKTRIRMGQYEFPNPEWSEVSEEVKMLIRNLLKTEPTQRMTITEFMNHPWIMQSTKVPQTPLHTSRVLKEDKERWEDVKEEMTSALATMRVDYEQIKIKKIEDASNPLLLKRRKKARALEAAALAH

SMILES	Dmax (MK2 [1]) [%]	DC50 (MK2 [1]) [nM]	Dmax (MK2 [2]) [%]	DC50 (MK2 [2]) [nM]	MK2 MSD SW1353 degradation 24 h GMean External Abs DC50 (MK2 [2])	MK2 MSD SW 1353 24 h Dmax % (MK2 [2])
Cn1c(=O)n(C2CCC(=O)NC2=O)c2ccc(N3CC(CN4CCN(c5ccc(-c6nccc(-c7cc8c([nH]7)C7(CC7)CNC8=O)n6)cc5)CC4)C3)cc21 (centres unmarked) [Compound I-426]	> 75	< 1	> 75	< 1		
C[C@@H]1CNc2c(sc3ccc4nc(-c5cccc(N6CCC(CN7CCC(CCc8cccc9c8n(C)c(=O)n9C8CCC(=O)NC8=O)CC7)CC6)c5)ccc4c23)C(=O)N1 (some centres unmarked) [Compound I-106]	> 75	< 1	> 75	1 to 10		
C[C@@H]1CNc2c(sc3ccc4nc(N5C[C@@H]6C[C@H]5CN6CC5CCN(c6cccc7c6n(C)c(=O)n7C6CCC(=O)NC6=O)CC5)ccc4c23)C(=O)N1 (some centres unmarked) [Compound I-187]	< 50	> 100	< 50	> 100		
C[C@@H]1CNc2c(sc3ccc4nc(-c5ccc(N6CCC(CN7CCN(c8ccc9c(c8)n(C)c(=O)n9C8CCC(=O)NC8=O)CC7)CC6)cc5Cl)ccc4c23)C(=O)N1 (some centres unmarked) [Compound I-292]	> 75	< 1	> 75	1 to 10		
Cn1c(=O)n(C2CCC(=O)NC2=O)c2ccc(N3CCC(CN4CCN(c5ccc(-c6nccc(-c7cc8c([nH]7)CCNC8=O)n6)cc5)CC4)CC3)cc21 (centres unmarked) [Compound I-427]	> 75	< 1	> 75	< 1		
CN1CC2(CNC(=O)c3c2[nH]c2c3CCc3cnc(-c4ccc(N5CCN(CCCCc6cccc7c6n(C)c(=O)n7C6CCC(=O)NC6=O)CC5)cc4F)cc3-2)C1 (centres unmarked) [Compound I-154]	> 75	10 to 100	> 75	10 to 100		
C[C@@H]1CNc2c(sc3ccc4nc(-c5ccc(N6CCN(CC7CCN(c8cccc(C9CCC(=O)NC9=O)c8)CC7)CC6)nc5)ccc4c23)C(=O)N1 (some centres unmarked) [Compound I-420]	> 75	1 to 10	> 75	1 to 10		
Cn1c(=O)n(C2CCC(=O)NC2=O)c2ccc(N3CCC4(CC3)CC(N3CCN(c5cc(-c6cc7c([nH]6)C6(CC6)CNC7=O)ccn5)CC3)C4)cc21 (centres unmarked) [Compound I-408]	< 50	> 100		> 100		—
C[C@@H]1CNc2c(sc3ccc4nc(N5CCCN(C6CC7(CCN(c8ccc9c(c8)n(C)c(=O)n9C8CCC(=O)NC8=O)CC7)C6)CC5)ccc4c23)C(=O)N1 (some centres unmarked) [Compound I-411]	50 to 75	10 to 100	50 to 75	1 to 10		

Results, then the molecule that gave them:

Dmax (MK2 [1]) [%]	DC50 (MK2 [1]) [nM]	Dmax (MK2 [2]) [%]	DC50 (MK2 [2]) [nM]	MK2 MSD SW1353 degradation 24 h GMean External Abs DC50 (MK2 [2])	MK2 MSD SW 1353 24 h Dmax % (MK2 [2])	SMILES
> 75	< 1	> 75	1 to 10			C[C@@H]1CNc2c(sc3ccc4nc(-c5cncc(N6CCN(CCCCCCCc7cccc8c7n(C)c(=O)n8C7CCC(=O)NC7=O)CC6)c5)ccc4c23)C(=O)N1 (some centres unmarked) [Compound I-158]
> 75	< 1	> 75	< 1			C[C@@H]1CNc2c(sc3ccc4nc(-c5ccc(N6CCN(C[C@H]7C[C@@H](c8ccc9c(c8)n(C)c(=O)n9C8CCC(=O)NC8=O)C7)CC6)cc5)ccc4c23)C(=O)N1 (some centres unmarked) [Compound I-221]
> 75	< 1	> 75	< 1			C[C@@H]1CNc2c(sc3ccc4nc(-c5ccc(N6CCN(CCc7ccc8c(c7)n(C)c(=O)n8C7CCC(=O)NC7=O)CC6)cc5)ccc4c23)C(=O)N1 (some centres unmarked) [Compound I-280]
> 75	1 to 10	> 75		—		Cn1c(=O)n(C2CCC(=O)NC2=O)c2cccc(CCCN3CCN(c4ccc(-c5cc(-c6cc7c([nH]6)C6(CC6)CNC7=O)ccn5)cn4)CC3)c21 (centres unmarked) [Compound I-199]
> 75	< 1	> 75	< 1			C[C@@H]1CNc2c(sc3ccc4nc(-c5ccc(N6CCN(C[C@H]7C[C@H](c8ccc9c(c8)n(C)c(=O)n9C8CCC(=O)NC8=O)C7)CC6)cc5)ccc4c23)C(=O)N1 (some centres unmarked) [Compound I-222]
